Source: paper PMC11079029, “Intramolecular autoinhibition regulates the selectivity of PRPF40A tandem WW domains for proline-rich motifs” (Nature Communications, 2024)
Like-named read-outs stand apart in the source and are kept apart here.

Experiments:
[1] = target: T1, PRPF40A WW12 (tandem WW domains, residues 141–236) (Homo sapiens, UniProt O75400); test: ITC of PRPF40A WW12 with GB1-tagged proline-rich peptides and constructs; type: binding
T1 construct: WW12 141–236, WW12long 141–248, and N-ext-WW12 56–236; 6xHis-TEV site (N, cleaved yes); made in house; host or cells: Escherichia coli BL21(DE3)
Source text: (§1) PRPF40A isoform 1 sequences (N-ter 1–310, WW12short 141–223, WW12 141–236, WW12long 141–248, and N-ext-WW12 56–236) were amplified from a purchased DNA fragment (IDT) and cloned using NcoI and KpnI restriction sites into a pETM11 vector encoding 6xHis and TEV cleavage site as a N-terminal tag. SF1 (Pro A 410–468, Pro B 468–539, Pro C 539–594, Pro D 594–639, Pro BC 468–594, Pro CD 539–639, Pro BCD 468–639 and Pro ABCD 410–639) and SF3A1 (Middle Pro 364–413 and C-ter Pro 552–683) constructs were prepared in a similar manner using a pET24 vector with a 6xHis, GB1 and TEV cleavage site as N-terminal fusion cassette. 16-mer SF1 constructs (Table 1) and polyproline peptides (P6, P8, P10, P13, P16, P19, P22, P25, and P29) were cloned in the same pET24 vector with GB1 tag by direct ligation of purchased oligonucleotides (Eurofins). All peptide sequences contained N and C-terminal common residues to avoid boundary effects on binding: TEVsite-GAMSGS-peptide-SGSN. Mutants of PRPF40A WW12 and N-ext-WW12 constructs were prepared by site-directed mutagenesis. The truncated version of PRPF40A WW12 (141-217) was a gift from Dr. María Macías (IRB, Spain). All used oligonucleotides were purchased from Eurofins Genomics and are shown in Supplementary Table 6.
(§2) Resuspended cell pellets in 20 mM Tris pH 8.0, 500 mM NaCl, 10 mM imidazole, 0.5 mM TCEP, and protease inhibitors mix (SERVA) were lysed by cell disruption in a French press. Clear lysates, after centrifugation (at 18,000 g) and filtering, were loaded into Ni-NTA resin. The resin was then washed with 20 mM imidazole containing buffer, and the desired protein was eluted with 500 mM imidazole. PRPF40A constructs were then subjected to TEV protease treatment (homemade at a final concentration of ≈50 μg/ml), dialyzed overnight at 4 °C against an imidazole-free buffer, and then loaded again to Ni-NTA resin; desired digested proteins were obtained in the flow-through and wash fractions while uncleaved protein, TEV protease, and impurities remained bound to the resin. Cleaved PRPF40A proteins and GB1-tagged SF1, SF3A1, and polyproline constructs were further purified by size-exclusion chromatography on a HiLoad 16/60 Superdex 75 column (GE Healthcare) equilibrated with 20 mM sodium phosphate, pH 6.5, 100 mM NaCl and 1 mM DTT buffer. For the purification of PRPF40A WW12 in complex with SF1 peptide, cell pellets of recombinant expression for both proteins were mixed and processed together following the Ni-NTA—TEV digestion—reverse Ni-NTA—SEC-75 protocol; where the complex remained bound in a 1:1 stoichiometry throughout the whole purification (corroborated by NMR). Molecular weight of each sample was confirmed by mass spectrometry, purity was checked by PAGE-SDS, and protein concentrations were determined from the aromatic contribution to the UV absorbance spectra at 280 nm.
(§3) Experiments were conducted on a MicroCAl PEAQ-ITC (Malvern Instruments, UK) at 25 °C in 20 mM sodium phosphate pH 6.5 and 100 mM NaCl. PRPF40A was titrated into N-terminal GB1 tagged SF1 or polyproline constructs and vice versa with similar results. Protein concentrations in the cell were around 20–40 μM, while in the syringe ranged between 200 and 500 μM. Experiments were performed at least in duplicate with injections of 1.5 μL (0.4 μL for first point) separated by 150 s delays to recover thermal power baseline and continuous stirring in the cell (750 rpm) for correct mixing. The reference cell was filled with water in all experiments. Data were processed by removing the blank experiment (using digested GB1 fusion protein) and adjusted to one-site binding model with Malvern PEAQ-ITC Analysis software (Malvern Instruments, UK).

[2] = target: T2, PRPF40A N-ext-WW12 (residues 56–236) (Homo sapiens, UniProt O75400); test: ITC of N-terminally extended WW12 with SF1 peptides; type: binding; conditions: for Kd: ITC
T2 construct: WW12long 141–248, and N-ext-WW12 56–236; 6xHis-TEV site (N, cleaved yes); made in house; host or cells: Escherichia coli BL21(DE3)
T2 sequence (O75400 56-236): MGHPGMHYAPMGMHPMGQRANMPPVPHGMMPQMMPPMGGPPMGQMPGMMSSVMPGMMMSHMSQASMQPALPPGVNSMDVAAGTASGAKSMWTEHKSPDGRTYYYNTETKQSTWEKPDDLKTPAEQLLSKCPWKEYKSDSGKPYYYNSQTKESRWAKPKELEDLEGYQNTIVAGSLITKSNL
Source text: as §1, §2, §3

PPLPPGAPPPPPPPPP [SF1WWbs] was tested, and the “N (sites)” value ([1]; ITC as E1, peptide in the cell, WW tandem in the syringe, N >1 = more than one WW tandem per peptide) was 1.00 ± 0.03 sites, the “DH” value ([1]; ITC binding enthalpy, as E1) was -19.6 ± 0.406 kcal/mol and the “Kd (µM)” value ([1]; ITC, 25 °C, 20 mM sodium phosphate pH 6.5, 100 mM NaCl, GB1-tagged polyproline or SF1 16-mer peptide in the cell, WW tandem in the syringe, one-site model, apparent Kd, average of at least duplicates) was “low micromolar range”. For the same sequence, the Kd ([1]; ITC, SF1 peptides, individual value 1 (replicate 1), read-out: Kd Values with WW12, individual value) was 1.29 µM, the Kd ([1]; ITC, SF1 peptides, individual value 2 (replicate 2), read-out: Kd Values with WW12, individual value) was 1.24 µM and the Kd ([1]; ITC, SF1 peptides, individual value 3 (replicate 3), read-out: Kd Values with WW12, individual value) was 1.62 µM. The Kd ([1]; ITC, SF1 peptides, individual value 5 (replicate 5), read-out: Kd Values with WW12, individual value) was 1.29 µM, the Kd ([1]; ITC, mean over the peptides of the classification group, read-out: Kd Values with WW12, averaged group) was 1.4 µM and the “N (sites)” value ([2]; ITC as E7) was 0.88 ± 0.03 sites. For the same sequence, the “DH” value ([2]; ITC binding enthalpy, as E7) was -15.8 ± 0.884 kcal/mol, the Kd ([2]; 25 °C, 20 mM sodium phosphate pH 6.5, 100 mM NaCl, GB1-tagged SF1 16-mer, N-terminally extended WW12, at least duplicates, listed as 575 PPLPPGAPPPPPPPPP 590, read-out: Kd) was 8.71 ± 0.88 µM and the Kd ([2]; 25 °C, 20 mM sodium phosphate pH 6.5, 100 mM NaCl, GB1-tagged SF1 16-mer, N-terminally extended WW12, at least duplicates, read-out: Kd) was < 10 µM. The Kd ([2]; SF1 peptides, individual value 1 (replicate 1), read-out: Kd Values with Nter Ext WW12, individual value) was 9.19 µM and the Kd ([2]; SF1 peptides, individual value 2 (replicate 2), read-out: Kd Values with Nter Ext WW12, individual value) was 8.22 µM.
